Measurements from US20130210061A1, “Method of Screening Damp-Dry Malodor Inhibitor and Method of Evaluating Damp-Dry Malodor Inhibitor” (KAO CORPORATION, priority 2010, published 2013).

Key:
Experiment in all cases: Example 1: quantification of 4M3H on cotton fabric with 14-methylhexadecanoic acid
[1] = system: M. osloensis NCIMB10693; type: cell-based, Moraxella osloensis; conditions: M. osloensis NCIMB10693, cotton fabric with 14-methylhexadecanoic acid, 37° C., 24 hours, vs sterilized water
Procedure: (§1) 10 mL of methanol was added to the towel that had been left to stand still for 24 hours, and 1 mL of the methanol was mixed with 1 mL of ADAM (9-anthrydiazomethanene, manufactured by Funakoshi Corp., 0.1 w/v %). The mixture was left to stand for 60 minutes at room temperature, and thus derivatization was carried out.
(§2) Thereafter, 10 μL of the solution was analyzed by using LC-FL (liquid chromatography apparatus: HITACHI ELITE LaChrom (trade name, manufactured by Hitachi, Ltd.), column: Lichrosphere 100 RP-8(e) (trade name, manufactured by Agilent Technologies, Inc., 5 μm×125 mm×4 mmφ), column temperature: 40° C., eluent a mixed solution of acetonitrile/water=7/3 (volume ratio), flow rate: 1.0 mL/min, detector: excitation wavelength (365 nm), measurement wavelength (412 nm)), and thereby quantification of 4M3H thus produced was carried out. In regard to the amount of production of 4M3H, a sample which produced 4M3H in an amount of more than 1 μg was rated as “[…]”; a sample which produced 4M3H in an amount of more than 0.1 μg and 1 μg or less was rated as “∘”; a sample which produced 4M3H in an amount of more than 0 μg and 0.1 μg or less was rated as “Δ”; and a sample in which no 4M3H was detected was rated as “x”.
(§3) One platinum loop of each of Moraxella osloensis NCIMB10693, Moraxella sp. 4-1, Psychrobacter pacificensis NBRC103191, Psychrobacter glacincola NCIMB101053, Pseudomonas alcaligenes No. 41, Acinetobacter calcoaceticus HH2BD-49, Saccaromyces cerevisiae NBRC1661, Rhodotorula mucilaginosa NBRC0909 and Rhodotorula slooffiae 13c was inoculated into 5 mL of a SCD liquid medium (manufactured by Nihon Pharmaceutical Co., Ltd.), and the microbial cells were subjected to shaking culture (160 rpm) at 35° C. for 24 hours. The microbial cells obtained after culture were centrifuged (8000×g, 10 minutes), the supernatant was removed, and then the microbial cells were suspended in 5 mL of physiological saline. The suspension was centrifuged again (8000×g, 10 minutes), subsequently the supernatant was removed, and a microbial suspension was prepared by using physiological saline such that the OD600 would be 0.1.
(§4) Furthermore, 0.1 mL each of 10-ppm or 100-ppm aqueous solutions of the compounds shown in the following Table 6 was applied on the fabric described above. As a control, a fabric on which sterilized water was applied instead of the compounds described below was also prepared.
(§5) On a plain-woven cotton fabric prepared as described above, 0.1 mL each of the various microbial suspensions was inoculated, and the samples were left to stand still under humidified conditions at 37° C. for 24 hours and were subjected to an evaluation such as described below.
(§6) Quantification of 4M3H was carried out by the same method as that used in Test Example 3, and by taking as a reference the 4M3H production amount of a sample on which sterilized water was applied as a test substance, the 4M3H production amounts in the case of applying other test substances were evaluated on the basis of the following criteria. • A: (4M3H production amount in the case of applying a test substance)<( 1/100 of the 4M3H production amount in the case of applying sterilized water) • B: ( 1/100 of the 4M3H production amount in the case of applying sterilized water)≦(4M3H production amount in the case of applying a test substance)<( 1/10 of the 4M3H production amount in the case of applying sterilized water) • C: ( 1/10 of the 4M3H production amount in the case of applying sterilized water)≦(4M3H production amount in the case of applying a test substance)<(4M3H production amount in the case of applying sterilized water) • D: (4M3H production amount in the case of applying sterilized water)≦(4M3H production amount in the case of applying a test substance)

[2] = system: Moraxella sp. 4-1; type: cell-based; conditions: 37° C., 24 hours, vs sterilized water
Procedure: as §1, §2, §3, §4, §5, §6

[3] = system: P. pacificensis NBRC103191; type: cell-based, Psychrobacter pacificensis; conditions: 37° C., 24 hours, vs sterilized water
Procedure: as §1, §2, §3, §4, §5, §6

[4] = system: P. glacincola NBRC101053; type: cell-based, Psychrobacter glacincola; conditions: 37° C., 24 hours, vs sterilized water
Procedure: as §1, §2, §3, §4, §5, §6

[5] = system: P. alcaligenes No. 41; type: cell-based, Pseudomonas alcaligenes; conditions: 37° C., 24 hours, vs sterilized water
Procedure: as §1, §2, §3, §4, §5, §6

[6] = system: A. calcoaceticus HH2BD-49; type: cell-based, Acinetobacter calcoaceticus; conditions: 37° C., 24 hours, vs sterilized water
Procedure: as §1, §2, §3, §4, §5, §6

[7] = system: S. cerevisiae NBRC1661; type: cell-based, Saccaromyces cerevisiae; conditions: 37° C., 24 hours, vs sterilized water
Procedure: as §1, §2, §3, §4, §5, §6

[8] = system: R. muculaginosa NBRC0909; type: cell-based, Rhodotorula mucilaginosa; conditions: 37° C., 24 hours, vs sterilized water
Procedure: as §1, §2, §3, §4, §5, §6

[9] = system: R. slooffiae 13c; type: cell-based, Rhodotorula slooffiae; conditions: 37° C., 24 hours, vs sterilized water
Procedure: as §1, §2, §3, §4, §5, §6

[10] = Faucicola osloensis, 100 ppm test substance, read-out: Production amount of 4M3H

Compound: CCCCCCCC/C=C\CCCCCCCC(=O)O [Oleic acid]
- activity at 100 ppm [1, 10]: 1 to 10%
- Production amount of 4M3H ([2]; 100 ppm test substance): B (( 1/100 of the 4M3H production amount in the case of applying sterilized water)≦(4M3H production amount in the case of applying a test substance)<( 1/10 of the 4M3H production amount in the case of applying sterilized water))
- Production amount of 4M3H ([3]; 100 ppm test substance): C (( 1/10 of the 4M3H production amount in the case of applying sterilized water)≦(4M3H production amount in the case of applying a test substance)<(4M3H production amount in the case of applying sterilized water))
- Production amount of 4M3H ([4]; 100 ppm test substance): A ((4M3H production amount in the case of applying a test substance)<( 1/100 of the 4M3H production amount in the case of applying sterilized water))
- Production amount of 4M3H ([5]; 100 ppm test substance): C (( 1/10 of the 4M3H production amount in the case of applying sterilized water)≦(4M3H production amount in the case of applying a test substance)<(4M3H production amount in the case of applying sterilized water))
- Production amount of 4M3H ([6]; 100 ppm test substance): C (( 1/10 of the 4M3H production amount in the case of applying sterilized water)≦(4M3H production amount in the case of applying a test substance)<(4M3H production amount in the case of applying sterilized water))
- Production amount of 4M3H ([7]; 100 ppm test substance): B (( 1/100 of the 4M3H production amount in the case of applying sterilized water)≦(4M3H production amount in the case of applying a test substance)<( 1/10 of the 4M3H production amount in the case of applying sterilized water))
- Production amount of 4M3H ([8]; 100 ppm test substance): B (( 1/100 of the 4M3H production amount in the case of applying sterilized water)≦(4M3H production amount in the case of applying a test substance)<( 1/10 of the 4M3H production amount in the case of applying sterilized water))
- Production amount of 4M3H ([9]; 100 ppm test substance): C (( 1/10 of the 4M3H production amount in the case of applying sterilized water)≦(4M3H production amount in the case of applying a test substance)<(4M3H production amount in the case of applying sterilized water))

Compound: Cc1ccc(C(C)C)c(O)c1 [Thymol]
- activity at 10 ppm ([1]; Faucicola osloensis, 10 ppm test substance, read-out: Production amount of 4M3H): 1 to 10%
- activity at 100 ppm [1, 10]: < 1%
- Production amount of 4M3H ([2]; 10 ppm test substance): C (( 1/10 of the 4M3H production amount in the case of applying sterilized water)≦(4M3H production amount in the case of applying a test substance)<(4M3H production amount in the case of applying sterilized water))
- Production amount of 4M3H ([2]; 100 ppm test substance): B (( 1/100 of the 4M3H production amount in the case of applying sterilized water)≦(4M3H production amount in the case of applying a test substance)<( 1/10 of the 4M3H production amount in the case of applying sterilized water))
- Production amount of 4M3H ([3]; 10 ppm test substance): D ((4M3H production amount in the case of applying sterilized water)≦(4M3H production amount in the case of applying a test substance))
- Production amount of 4M3H ([3]; 100 ppm test substance): B (( 1/100 of the 4M3H production amount in the case of applying sterilized water)≦(4M3H production amount in the case of applying a test substance)<( 1/10 of the 4M3H production amount in the case of applying sterilized water))
- Production amount of 4M3H ([4]; 10 ppm test substance): C (( 1/10 of the 4M3H production amount in the case of applying sterilized water)≦(4M3H production amount in the case of applying a test substance)<(4M3H production amount in the case of applying sterilized water))
- Production amount of 4M3H ([4]; 100 ppm test substance): B (( 1/100 of the 4M3H production amount in the case of applying sterilized water)≦(4M3H production amount in the case of applying a test substance)<( 1/10 of the 4M3H production amount in the case of applying sterilized water))
- Production amount of 4M3H ([5]; 10 ppm test substance): D ((4M3H production amount in the case of applying sterilized water)≦(4M3H production amount in the case of applying a test substance))
- Production amount of 4M3H ([5]; 100 ppm test substance): C (( 1/10 of the 4M3H production amount in the case of applying sterilized water)≦(4M3H production amount in the case of applying a test substance)<(4M3H production amount in the case of applying sterilized water))
- Production amount of 4M3H ([6]; 10 ppm test substance): D ((4M3H production amount in the case of applying sterilized water)≦(4M3H production amount in the case of applying a test substance))
- Production amount of 4M3H ([6]; 100 ppm test substance): C (( 1/10 of the 4M3H production amount in the case of applying sterilized water)≦(4M3H production amount in the case of applying a test substance)<(4M3H production amount in the case of applying sterilized water))
- Production amount of 4M3H ([7]; 10 ppm test substance): C (( 1/10 of the 4M3H production amount in the case of applying sterilized water)≦(4M3H production amount in the case of applying a test substance)<(4M3H production amount in the case of applying sterilized water))
- Production amount of 4M3H ([7]; 100 ppm test substance): D ((4M3H production amount in the case of applying sterilized water)≦(4M3H production amount in the case of applying a test substance))
- Production amount of 4M3H ([8]; 10 ppm test substance): D ((4M3H production amount in the case of applying sterilized water)≦(4M3H production amount in the case of applying a test substance))
- Production amount of 4M3H ([8]; 100 ppm test substance): A ((4M3H production amount in the case of applying a test substance)<( 1/100 of the 4M3H production amount in the case of applying sterilized water))
- Production amount of 4M3H ([9]; 10 ppm test substance): D ((4M3H production amount in the case of applying sterilized water)≦(4M3H production amount in the case of applying a test substance))
- Production amount of 4M3H ([9]; 100 ppm test substance): C (( 1/10 of the 4M3H production amount in the case of applying sterilized water)≦(4M3H production amount in the case of applying a test substance)<(4M3H production amount in the case of applying sterilized water))

Compound: Alkyl benzyl dimethyl ammonium chloride
- Production amount of 4M3H ([1]; 100 ppm test substance): D ((4M3H production amount in the case of applying sterilized water)≦(4M3H production amount in the case of applying a test substance))
- Production amount of 4M3H ([2]; 100 ppm test substance): D ((4M3H production amount in the case of applying sterilized water)≦(4M3H production amount in the case of applying a test substance))
- Production amount of 4M3H ([3]; 100 ppm test substance): D ((4M3H production amount in the case of applying sterilized water)≦(4M3H production amount in the case of applying a test substance))
- Production amount of 4M3H ([4]; 100 ppm test substance): C (( 1/10 of the 4M3H production amount in the case of applying sterilized water)≦(4M3H production amount in the case of applying a test substance)<(4M3H production amount in the case of applying sterilized water))
- Production amount of 4M3H ([5]; 100 ppm test substance): D ((4M3H production amount in the case of applying sterilized water)≦(4M3H production amount in the case of applying a test substance))
- Production amount of 4M3H ([6]; 100 ppm test substance): D ((4M3H production amount in the case of applying sterilized water)≦(4M3H production amount in the case of applying a test substance))
- Production amount of 4M3H ([7]; 100 ppm test substance): C (( 1/10 of the 4M3H production amount in the case of applying sterilized water)≦(4M3H production amount in the case of applying a test substance)<(4M3H production amount in the case of applying sterilized water))
- Production amount of 4M3H ([8]; 100 ppm test substance): D ((4M3H production amount in the case of applying sterilized water)≦(4M3H production amount in the case of applying a test substance))
- Production amount of 4M3H ([9]; 100 ppm test substance): D ((4M3H production amount in the case of applying sterilized water)≦(4M3H production amount in the case of applying a test substance))
